Data from article PMC5207065, “The Ribosome Restrains Molten Globule Formation in Stalled Nascent Flavodoxin” (The Journal of Biological Chemistry, 2016).

Assays:
Experiment in all cases: FMN fluorescence quenching on binding to apoprotein, time trace
[1] = biological target: T1, flavodoxin (C69A apoflavodoxin; F44Y apoflavodoxin) (Azotobacter vinelandii, UniProt P00324, C70A); details: 10 or 100 mM potassium PPi, pH 6.0, 25 °C; 140 nM protein, 25 nM FMN
T1 construct: gene nifF; full-length isolated apoflavodoxin, 179 residues, expressed in E. coli TG2; FMN removed

[2] = biological target: T2, F44YRNC (ribosome-nascent chain complex of F44Y flavodoxin) (Azotobacter vinelandii, UniProt P00324, F45Y/C70A); details: buffer I (HEPES-KOH, magnesium acetate), pH 7.4, 25 °C; 50 nM RNC, 25 nM FMN; stalled on ribosome
T2 construct: gene nifF; fusion: triple StrepII tag, Smt3, flavodoxin, TEV site, linker, SecM; stalled on E. coli ribosome, made in vitro with PURExpress, Strep-Tactin purified; tags kept

[3] = biological target: T3, apo-F44YP (released F44Y flavodoxin construct) (Azotobacter vinelandii, UniProt P00324, F45Y/C70A); details: 100 mM potassium PPi, 25 °C; refolded apo-F44YP 147 nM, 25 nM FMN
T3 construct: gene nifF; tags kept
T3 sequence (P00324 2-180 F45Y/C70A): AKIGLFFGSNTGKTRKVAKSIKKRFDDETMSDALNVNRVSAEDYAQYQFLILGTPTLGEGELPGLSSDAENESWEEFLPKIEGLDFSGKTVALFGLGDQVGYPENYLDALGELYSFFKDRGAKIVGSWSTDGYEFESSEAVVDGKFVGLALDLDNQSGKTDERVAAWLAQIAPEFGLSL

T2 sequence (P00324 2-180 F45Y/C70A, one chain of several): as the sequence (P00324 2-180 F45Y/C70A) above
T1 sequence (P00324 2-180 C70A): as the sequence (P00324 2-180 F45Y/C70A) above, with Y44F counted along it

`Cc1cc2nc3c(=O)[nH]c(=O)nc-3n(C[C@H](O)[C@H](O)[C@H](O)COP(=O)(O)O)c2cc1C` [FMN] was tested, and the “FMN fluorescence quenching on binding to apoprotein, time trace” value (“FMN fluorescence quenching on binding” for short) [1] was “time-dependent decrease of FMN fluorescence upon cofactor binding to C69A apoflavodoxin”, the “FMN fluorescence quenching on binding” value [2] was “F44YRNC binds FMN rapidly at both salt concentrations” and the “FMN fluorescence quenching on binding” value [3] was “the FMN binding trace of this refolded apo-F44YP was measured in various buffers”.
